Assays:
[1] = test system: primary human fibroblasts; experiment: Indirect immunofluorescence on primary human fibroblasts; format: cell-based; details: 5 and 10 μM for 24 hours
Procedure: Primary human fibroblasts (PHFs) were prepared from newborn foreskins as described in (Nahm W K et al., J Dermatol Sci. 2002, 28(2): pp 152-8).
The cells were cultured on slides in 24-well plates and incubated for 24 hours with molecule 6 at different concentrations from 1 to 10 μM.
Corresponding quantities of DMSO were added to the culture medium in the control wells.
The cells were fixed in a solution of PBS with 4% paraformaldehyde (PFA) and 0.1% glutaraldehyde (GA), for 15 minutes and centrifuged at 300 g for the last 10 minutes of the fixing. The slides were rinsed in PBS and the free aldehyde groups were reduced by two successive 5-minute incubations in PBS containing 1 mg/ml of NaBH4.
After one washing with PBS then another with PBST (PBS with 0.5% triton-X-100), the cells are incubated for 30 minutes at ambient temperature with anti α-tubulin monoclonal antibody solution (DM1A clone, Sigma # T6199) diluted to 1:200 in PBST. […] After 3 10-minute washings in PBST, the slides are mounted on plates in Fluorsave™ mounting medium (Calbiochem #345789) and are observed and analyzed using an Axiovert 200M inverted fluorescence microscope (Zeiss®). […]

HeLa cells [2] = experiment: Indirect immunofluorescence: effect on HeLa cells (mitotic arrest, microtubule depolymerization); format: cell-based, human; set-up: key to Effect on Hela at 25 μM / Effect on Hela at 100 μM / Effect on Hela at 50 and 100 μM / Effect on Hela at 50 μM: —: −: no activity on the cells at 25 μM (if there is an effect at high concentrations, this is specified in the table).; *: weak activity (MA and/or slight depolymerization of the MTs and/or slight inhibition of proliferation),; **: average activity (MA and/or moderate depolymerization of the MTs and/or moderate inhibition of proliferation),; ***: strong activity (MA and/or pronounced depolymerization of the MTs and/or pronounced inhibition of proliferation),; ****: very strong activity (MA and/or very pronounced depolymerization of the MTs and/or strong inhibition of proliferation)
Method in brief: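 HeLa cells exposed 24 h to compound (100 μM to 50 nM; primary series 1–10 μM), DMSO controls. PFA/glutaraldehyde-fixed cells immunostained for α-tubulin, actin (phalloidin) and DNA (Hoechst); fluorescence microscopy scored phenotypes and mitotic index, with mitotic index and/or MT depolymerization evaluated at 25 μM.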

bovine brain tubulin = experiment: In vitro tubulin polymerization test (turbidimetry at 350 nm); format: biochemical; details: molecules at 50 μM, calculated at t=3000 s, DMSO control = 100%
Method in brief: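 Bovine brain tubulin was assembled at 37 °C in BRB80 (80 mM K-PIPES pH 6.8, 1 mM MgCl2, 1 mM EGTA) with 1 mM GTP. The 50 μM tests used compounds at 50 μM, run in triplicate. Turbidity at 350 nm was read at t=3000 s and expressed relative to control taken as 100%.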

[3] = In vivo toxicity in nude mice (weight, maximum tolerated oral dose); details: 200 mg/kg per os twice weekly over 2 months, 63 days
Procedure: FIG. 14 presents the change in the weight of nude mice over 63 days. The mice received an administration of compound 6 (200 mg/kg) per os twice weekly over 2 months.
Compound 6 was dissolved at 8 mg/ml in a 60 mg/ml aqueous solution of beta-cyclodextrin (vehicle).
For the in vivo experiments, molecule 6 (8 mg/ml) was prepared in 60 mg/ml of β-cyclodextrin (Sigma #4805) dissolved in water and vortexed.
All the animal experiments were carried out according to the recommendations of the local ethics commmittee. Nude mice (NCr-nu/nu females (Harlan Laboratories), were housed in a room with filtered air at 22° C., alternating 12 hours of day and 12 hours of night.
The mice received compound 6 per os in doses and at intervals described in the captions to the figures. The control mice received the vehicle alone (identical volume of beta-cyclodextrin at 60 mg/ml))

HeLa cells [4] = experiment: Phase contrast video microscopy of HeLa cells (mitosis duration, blebbing); format: cell-based, human; details: 0.5 μM
Procedure: The cells were filmed over 48 hours (image acquisition every 5 minutes) with a Neofluar 40× objective (Zeiss).
The values of FIG. 10A are averages±SEM of two experiments in which 50 mitotic cells were monitored.
For z-series video microscopy, HeLa cells were cultured in glass-bottomed dishes (Iwaki, Milian # BY-3910035). The system comprises: an AXIOVERT 200M inverted microscope (Zeiss®), a thermostated incubation chamber which maintains a temperature of 37° C. and a constant CO2 level of 5%, a motorized platform and a CoolSNAP HQ camera (Roper Scientifics®) coupled with the Metamorph acquisition and analysis system (Universal Imaging™ Corporation). The studies were carried out with ×20 or ×40 objectives (Neofluar Zeiss).
Initially, the acquisition fields were chosen and stored in the memory, then the acquisition parameters were defined, such as the duration of the experiment (48 hours), the interval between the image captures (5 minutes), or the number of sections at depth z (9 sections). At the end of 48 hours of recording, the acquisition batteries were reconstituted with the image at z having the same focus, using the Metamorph software.

For `COc1ccc(-c2[nH]c(=O)c3cc(OC)ccc3c2[N+](=O)[O-])cc1` [Compound 6, 7-methoxy-3-(4-methoxyphenyl)-4-nitroisoquinoline-1(2H)-one], the “phenotype on microtubules and actin cytoskeleton, primary human fibroblasts in interphase” value [1] was “depolymerization of the microtubules and a reorganization of the actin cytoskeleton”, the “phenotype on microtubules and actin cytoskeleton, primary human fibroblasts in mitosis” value [1] was “depolymerization of the spindle microtubules and the formation of ectopic furrows” and the “Effect on Hela at 25 μM” value (HeLa cells [2]; 25 μM, 24 hours, mitotic index and/or depolymerization of the MTs) was “****”. For the same compound, the “phenotype on microtubules and actin cytoskeleton, HeLa cells in interphase” value (HeLa cells [2]; 1 and 10 μM for 24 hours) was “depolymerization of the microtubules and a reorganization of the actin cytoskeleton”, the “phenotype on microtubules and actin cytoskeleton, HeLa cells in mitosis” value (HeLa cells [2]; 1 and 10 μM for 24 hours) was “depolymerization of the spindle microtubules and actin blebbing at the level of the cortex” and the Tubulin polymerization inhibition (bovine brain tubulin) was “+ ((+) signifies that the molecule induces tubulin assembly inhibition in vitro comprised between 6 and 25% of the DMSO control.)”. For the same compound, the “effect on the weight of nude mice” value [3] was “no significant effect”, the “membrane phenotype of HeLa cells (interphase and mitosis), phase contrast” value (HeLa cells [4]; 3 hours) was “cortical blebbings” and the “mitotic arrest of HeLa cells, phase contrast over 24 hours” value (HeLa cells [4]; 24 hours) was “accumulation of rounded HeLa cells”. The “mitotic cells remaining rounded” value (HeLa cells [4]; HeLa cells in mitosis) was 20%, the “mitotic cells showing intense blebbing” value (HeLa cells [4]; HeLa cells in mitosis) was 80% and the “duration of the mitosis of HeLa cells” value (HeLa cells [4]; 1 hour under control conditions) was 22 h.

From patent publication US8883763B2 (Universite Joseph Fourier, priority 2010, dated 2014)
